Data: the NIST ThermoML archive (doi:10.1021/je900962v)
Where “and” joins values, the source holds several entries; their conditions need not be identical. Equal values may be shown once. Numbers after ± are expanded uncertainties.

Legend:
[1] = 298.15 K
[2] = xn = mol fraction of the nth substance listed; details: 298.15 K

CCCCOC(C)=O [butyl ethanoate]
surface tension liquid-gas [1]: 24.91 ± 0.3 mN/m

CCCCOC(C)=O [butyl ethanoate] + O
surface tension liquid-gas ([2]; x1 = 7.97e-05): 63.74 ± 0.5 mN/m | surface tension liquid-gas ([2]; x1 = 7.99e-05): 64.49 ± 0.51 mN/m | surface tension liquid-gas ([2]; x1 = 8.76e-05): 63.71 ± 0.5 mN/m | surface tension liquid-gas ([2]; x1 = 8.81e-05): 64.3 ± 0.5 mN/m | surface tension liquid-gas ([2]; x1 = 0.000104): 62.6 ± 0.5 mN/m | surface tension liquid-gas ([2]; x1 = 0.000124): 61.81 ± 0.49 mN/m | surface tension liquid-gas ([2]; x1 = 0.000131): 61.47 ± 0.49 mN/m | surface tension liquid-gas ([2]; x1 = 0.000142): 61.15 ± 0.49 mN/m | surface tension liquid-gas ([2]; x1 = 0.000173): 59.3 ± 0.48 mN/m | surface tension liquid-gas ([2]; x1 = 0.000216): 57.5 ± 0.47 mN/m | surface tension liquid-gas ([2]; x1 = 0.000274): 55.53 ± 0.46 mN/m | surface tension liquid-gas ([2]; x1 = 0.000343): 53.31 ± 0.44 mN/m | surface tension liquid-gas ([2]; x1 = 0.000439): 51.12 ± 0.43 mN/m | surface tension liquid-gas ([2]; x1 = 0.000536): 49.09 ± 0.42 mN/m | surface tension liquid-gas ([2]; x1 = 0.00067): 46.9 ± 0.41 mN/m | surface tension liquid-gas ([2]; x1 = 0.000754): 45.57 ± 0.4 mN/m | surface tension liquid-gas ([2]; x1 = 0.00081): 44.42 ± 0.4 mN/m | surface tension liquid-gas ([2]; x1 = 0.000933): 43.1 ± 0.39 mN/m | surface tension liquid-gas ([2]; x1 = 1): 24.91 ± 0.3 mN/m

CCOC(C)=O [ethyl acetate]
surface tension liquid-gas ([1]; Drop volume): 23.93 ± 0.15 mN/m

CCOC(C)=O [ethyl acetate] + O
surface tension liquid-gas ([2]; Drop volume, x1 = 0.0011): 62.08 ± 0.9 mN/m | surface tension liquid-gas ([2]; Drop volume, x1 = 0.0013): 60.95 ± 0.91 mN/m | surface tension liquid-gas ([2]; Drop volume, x1 = 0.0014): 60.43 ± 0.91 mN/m | surface tension liquid-gas ([2]; Drop volume, x1 = 0.0017): 59.33 ± 0.93 mN/m | surface tension liquid-gas ([2]; Drop volume, x1 = 0.0018): 58.8 ± 0.83 mN/m | surface tension liquid-gas ([2]; Drop volume, x1 = 0.0025): 56.64 ± 0.86 mN/m | surface tension liquid-gas ([2]; Drop volume, x1 = 0.0033): 54.17 ± 0.82 mN/m | surface tension liquid-gas ([2]; Drop volume, x1 = 0.0044): 51.16 ± 0.54 mN/m | surface tension liquid-gas ([2]; Drop volume, x1 = 0.0054): 48.98 ± 0.46 mN/m | surface tension liquid-gas ([2]; Drop volume, x1 = 0.0061): 47.92 ± 0.44 mN/m | surface tension liquid-gas ([2]; Drop volume, x1 = 0.008): 44.22 ± 0.33 mN/m | surface tension liquid-gas ([2]; Drop volume, x1 = 0.0089): 43.31 ± 0.3 mN/m | surface tension liquid-gas ([2]; Drop volume, x1 = 0.0118): 41.37 ± 0.25 mN/m | surface tension liquid-gas ([2]; Drop volume, x1 = 0.0141): 38.97 ± 0.28 mN/m | surface tension liquid-gas ([2]; Drop volume, x1 = 1): 23.93 ± 0.15 mN/m

COC(C)=O [methyl ethanoate]
surface tension liquid-gas ([1]; Drop volume): 24.79 ± 0.2 mN/m

COC(C)=O [methyl ethanoate] + O
surface tension liquid-gas ([2]; Drop volume, x1 = 0.004): 61.87 ± 0.48 mN/m | surface tension liquid-gas ([2]; Drop volume, x1 = 0.0047): 60.57 ± 0.48 mN/m | surface tension liquid-gas ([2]; Drop volume, x1 = 0.0056): 59.67 ± 0.36 mN/m | surface tension liquid-gas ([2]; Drop volume, x1 = 0.0069): 57.62 ± 0.36 mN/m | surface tension liquid-gas ([2]; Drop volume, x1 = 0.0093): 54.72 ± 0.32 mN/m | surface tension liquid-gas ([2]; Drop volume, x1 = 0.0115): 53.25 ± 0.29 mN/m | surface tension liquid-gas ([2]; Drop volume, x1 = 0.0147): 49.91 ± 0.26 mN/m | surface tension liquid-gas ([2]; Drop volume, x1 = 0.0183): 48.18 ± 0.23 mN/m | surface tension liquid-gas ([2]; Drop volume, x1 = 0.0214): 46.68 ± 0.24 mN/m | surface tension liquid-gas ([2]; Drop volume, x1 = 0.0245): 44.35 ± 0.23 mN/m | surface tension liquid-gas ([2]; Drop volume, x1 = 0.029): 42.63 ± 0.21 mN/m | surface tension liquid-gas ([2]; Drop volume, x1 = 0.0341): 40.26 ± 0.21 mN/m | surface tension liquid-gas ([2]; Drop volume, x1 = 0.0433): 36.64 ± 0.2 mN/m | surface tension liquid-gas ([2]; Drop volume, x1 = 0.0523): 33.49 ± 0.19 mN/m | surface tension liquid-gas ([2]; Drop volume, x1 = 0.0586): 31.61 ± 0.18 mN/m | surface tension liquid-gas ([2]; Drop volume, x1 = 0.0702): 29.12 ± 0.17 mN/m | surface tension liquid-gas ([2]; Drop volume, x1 = 1): 24.79 ± 0.2 mN/m

CCCOC(C)=O [propyl ethanoate]
surface tension liquid-gas ([1]; Drop volume): 24.22 ± 0.16 mN/m

CCCOC(C)=O [propyl ethanoate] + O
surface tension liquid-gas ([2]; Drop volume, x1 = 0.00017): 65.86 ± 1.3 mN/m | surface tension liquid-gas ([2]; Drop volume, x1 = 0.00023): 64.54 ± 1.5 mN/m | surface tension liquid-gas ([2]; Drop volume, x1 = 0.00031): 62.64 ± 1.3 mN/m and 63.23 ± 1.4 mN/m | surface tension liquid-gas ([2]; Drop volume, x1 = 0.00038): 61.64 ± 1.3 mN/m | surface tension liquid-gas ([2]; Drop volume, x1 = 0.00041): 61.43 ± 1.3 mN/m | surface tension liquid-gas ([2]; Drop volume, x1 = 0.00049): 60.29 ± 1.3 mN/m | surface tension liquid-gas ([2]; Drop volume, x1 = 0.00052): 59.4 ± 1.2 mN/m | surface tension liquid-gas ([2]; Drop volume, x1 = 0.00057): 59.02 ± 1.2 mN/m | surface tension liquid-gas ([2]; Drop volume, x1 = 0.00071): 57.47 ± 1.1 mN/m | surface tension liquid-gas ([2]; Drop volume, x1 = 0.00074): 56.94 ± 1.1 mN/m | surface tension liquid-gas ([2]; Drop volume, x1 = 0.00083): 56.17 ± 1.1 mN/m | surface tension liquid-gas ([2]; Drop volume, x1 = 0.00103): 54.38 ± 1.5 mN/m | surface tension liquid-gas ([2]; Drop volume, x1 = 0.00104): 53.7 ± 1.5 mN/m | surface tension liquid-gas ([2]; Drop volume, x1 = 0.00114): 53.49 ± 1.5 mN/m | surface tension liquid-gas ([2]; Drop volume, x1 = 0.00116): 53.22 ± 1.5 mN/m | surface tension liquid-gas ([2]; Drop volume, x1 = 0.00142): 50.93 ± 1.6 mN/m and 51.11 ± 1.6 mN/m | surface tension liquid-gas ([2]; Drop volume, x1 = 0.00158): 49.17 ± 1.6 mN/m | surface tension liquid-gas ([2]; Drop volume, x1 = 0.00159): 49.3 ± 1.6 mN/m | surface tension liquid-gas ([2]; Drop volume, x1 = 0.00208): 46.76 ± 1.7 mN/m | surface tension liquid-gas ([2]; Drop volume, x1 = 0.00239): 45.44 ± 1.7 mN/m | surface tension liquid-gas ([2]; Drop volume, x1 = 0.00318): 42.65 ± 1.8 mN/m | surface tension liquid-gas ([2]; Drop volume, x1 = 0.00355): 41.31 ± 1.3 mN/m | surface tension liquid-gas ([2]; Drop volume, x1 = 0.00367): 40.63 ± 1.2 mN/m | surface tension liquid-gas ([2]; Drop volume, x1 = 0.0038): 40.55 ± 1.1 mN/m | surface tension liquid-gas ([2]; Drop volume, x1 = 1): 24.22 ± 0.16 mN/m

O [water]
surface tension liquid-gas ([1]; Drop volume): 71.57 ± 0.27 mN/m

O [water] + CCCCOC(C)=O
surface tension liquid-gas ([2]; x2 = 0): 71.57 ± 0.54 mN/m

O [water] + CCCOC(C)=O
surface tension liquid-gas ([2]; Drop volume, x2 = 0): 71.57 ± 0.27 mN/m

O [water] + CCOC(C)=O
surface tension liquid-gas ([2]; Drop volume, x2 = 0): 71.57 ± 0.27 mN/m

O [water] + COC(C)=O
surface tension liquid-gas ([2]; Drop volume, x2 = 0): 71.57 ± 0.27 mN/m
